In patent US20140107109A1, “AMINO-DIHYDROTHIAZINE AND AMINO-DIOXIDO DIHYDROTHIAZINE COMPOUNDS AS BETA-SECRETASE ANTAGONISTS AND METHODS OF USE” (Amgen Inc., priority 2012, published 2014):

Legend:
[1] = biological target: Beta Secretase enzyme (BACE1) (Homo sapiens, UniProt P56817); assay: In vitro enzymatic BACE FRET assay; type: biochemical; conditions: average IC50, enzyme assay; read-out: BACE1 FRET assay IC50
Summary of the method: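 Readout: dequenched fluorescence (ex 488 nm/[…]) after neutralizing with Tris buffer. Reactions, begun by adding 50 nM quenched peptide substrate spanning the BACE cleavage site, were incubated one hour at pH 4.2 in 0.05 M acetate with 100 uM genapol and 10% final DMSO.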

[2] = system: Aβ40 in conditioned medium of cells stably expressing Amyloid Precursor Protein (APP); assay: In vitro BACE cell-based assay (HEK cell assay), Aβ40 sandwich ELISA; conditions: Homo sapiens, HEK293; average IC50, HEK cell assay
Summary of the method: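 Aβ40 in conditioned medium was quantified by time-resolved fluorescence sandwich ELISA (pAb40 capture 3 h at 4 °C, biotin-6E10 detection 2 h at 4 °C) after 24 h compound exposure of APP-expressing cells. Doses spanned 10 points from 100 μM or 10 μM top, 0.1% DMSO; IC50 was derived from percent of control.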

Cathepsin D (Cat D) = biological target: T1, Cathepsin D (Cat D) (Homo sapiens, UniProt P07339); assay: In vitro enzymatic Cathepsin D (Cat D) FRET assay; type: biochemical; conditions: read-out: CatD IC50
T1 construct: Recombinant Cat D was expressed in CHO cells; made in house; host or cells: CHO cells
Summary of the method: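 FRET read-out: a fluorophore/quencher-labelled peptide substrate is cleaved by 9 nM Cat D (recombinant, CHO-expressed) following a one-hour preincubation with inhibitor dilutions in DMSO. Tris buffer added to neutralize pH ends the reaction before fluorescence measurement.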

Beta Secretase enzyme (BACE1), sequence (P56817 46-501): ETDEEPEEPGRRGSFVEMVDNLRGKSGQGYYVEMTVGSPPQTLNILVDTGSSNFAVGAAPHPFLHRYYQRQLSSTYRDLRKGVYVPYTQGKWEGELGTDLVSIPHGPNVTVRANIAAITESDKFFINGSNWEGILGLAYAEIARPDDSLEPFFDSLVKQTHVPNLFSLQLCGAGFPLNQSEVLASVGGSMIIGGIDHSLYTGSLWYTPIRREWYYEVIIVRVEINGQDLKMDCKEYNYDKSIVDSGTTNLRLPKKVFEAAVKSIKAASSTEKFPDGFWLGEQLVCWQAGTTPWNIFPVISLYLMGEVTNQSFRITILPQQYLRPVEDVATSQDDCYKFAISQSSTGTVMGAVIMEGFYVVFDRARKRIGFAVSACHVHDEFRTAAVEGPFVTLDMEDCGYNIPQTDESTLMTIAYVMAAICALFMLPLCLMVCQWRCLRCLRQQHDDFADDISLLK
T1 sequence (P07339 65-412, species assumed): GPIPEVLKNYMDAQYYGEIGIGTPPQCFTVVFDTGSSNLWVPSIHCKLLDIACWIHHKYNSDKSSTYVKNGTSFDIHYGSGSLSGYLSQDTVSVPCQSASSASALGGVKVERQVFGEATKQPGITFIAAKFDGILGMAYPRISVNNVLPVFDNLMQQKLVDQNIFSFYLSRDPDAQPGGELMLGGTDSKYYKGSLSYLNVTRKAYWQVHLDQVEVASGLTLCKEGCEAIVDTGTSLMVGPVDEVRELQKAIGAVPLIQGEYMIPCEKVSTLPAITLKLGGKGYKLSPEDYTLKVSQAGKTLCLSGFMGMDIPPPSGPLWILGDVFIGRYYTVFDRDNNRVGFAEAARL

IC50 [1] [µM]	IC50 [2] [µM]	IC50 (Cathepsin D (Cat D)) [µM]	Compound
0.256	0.241	218	CC1(C)C(N)=N[C@](C)(c2cc(Oc3ncccc3C#N)ccc2F)CS1(=O)=O [Example 306, 2-(3-((3R)-5-amino-3,6,6-trimethyl-1,1-dioxido-3,6-dihydro-2H-1,4-thiazin-3-yl)-4-fluorophenoxy)-3-pyridinecarbonitrile]
0.168	0.258	298	CC1(C)C(N)=N[C@](C)(c2cc(Oc3nccc(C#N)c3Cl)ccc2F)CS1(=O)=O [Example 307, 2-(3-((3R)-5-amino-3,6,6-trimethyl-1,1-dioxido-3,6-dihydro-2H-1,4-thiazin-3-yl)-4-fluorophenoxy)-3-chloro-4-pyridinecarbonitrile]
4.16	3.27	224	CC1(C)C(N)=N[C@](C)(c2cc(Oc3c(C#N)ccnc3Cl)ccc2F)CS1(=O)=O [Example 308, 3-(3-((3R)-5-amino-3,6,6-trimethyl-1,1-dioxido-3,6-dihydro-2H-1,4-thiazin-3-yl)-4-fluorophenoxy)-2-chloro-4-pyridinecarbonitrile]
0.101	0.0751	274	COc1ccnc(Oc2ccc(F)c([C@]3(C)CS(=O)(=O)C(C)(C)C(N)=N3)c2)n1 [Example 309, (5R)-5-(2-fluoro-5-((4-methoxy-2-pyrimidinyl)oxy)phenyl)-2,2,5-trimethyl-5,6-dihydro-2H-1,4-thiazin-3-amine 1,1-dioxide]
1.34	0.931	444	Cc1ccnc(Oc2ccc(F)c([C@]3(C)CS(=O)(=O)C(C)(C)C(N)=N3)c2)c1C#N [Example 310, 2-(3-((3R)-5-amino-3,6,6-trimethyl-1,1-dioxido-3,6-dihydro-2H-1,4-thiazin-3-yl)-4-fluorophenoxy)-4-methyl-3-pyridinecarbonitrile]
2.57	2.39	401	Cc1c(C(F)(F)F)ccnc1Oc1ccc(F)c([C@]2(C)CS(=O)(=O)C(C)(C)C(N)=N2)c1 [Example 311, (5R)-5-(2-fluoro-5-((3-methyl-4-(trifluoromethyl)-2-pyridinyl)oxy)phenyl)-2,2,5-trimethyl-5,6-dihydro-2H-1,4-thiazin-3-amine 1,1-dioxide]
2.89	1.59	771	CC1(C)C(N)=N[C@](C)(c2cc(Oc3nccc(C(F)(F)F)c3C#N)ccc2F)CS1(=O)=O [Example 312, 2-(3-((3R)-5-amino-3,6,6-trimethyl-1,1-dioxido-3,6-dihydro-2H-1,4-thiazin-3-yl)-4-fluorophenoxy)-4-(trifluoromethyl)-3-pyridinecarbonitrile]
0.00058	0.005	504	CC1(C)C(N)=N[C@](C)(c2cc(NC(=O)c3cnc(OCC(F)F)cn3)ccc2F)CS1(=O)=O [Example 314, N-(3-((3R)-5-amino-3,6,6-trimethyl-1,1-dioxido-3,6-dihydro-2H-1,4-thiazin-3-yl)-4-fluorophenyl)-5-(2,2-difluoroethoxy)-2-pyrazinecarboxamide]
0.0376	0.0253	253	CC1(C)C(N)=N[C@](C)(c2cc(NC(=O)c3ccc4ccccc4n3)ccc2F)CS1(=O)=O [Example 315, N-(3-((3R)-5-amino-3,6,6-trimethyl-1,1-dioxido-3,6-dihydro-2H-1,4-thiazin-3-yl)-4-fluorophenyl)-2-quinolinecarboxamide]
0.0412	0.018	36.6	CC1(C)C(N)=N[C@](C)(c2cc(NC(=O)c3cnc4ccccc4n3)ccc2F)CS1(=O)=O [Example 316, N-(3-((3R)-5-amino-3,6,6-trimethyl-1,1-dioxido-3,6-dihydro-2H-1,4-thiazin-3-yl)-4-fluorophenyl)-2-quinoxalinecarboxamide]
0.00021	0.0036	> 133	CC#CCOc1cnc(C(=O)Nc2ccc(F)c([C@]3(C)CS(=O)(=O)[C@@](C)(F)C(N)=N3)c2)cn1 [Example 317, N-(3-((3R,6R)-5-amino-6-fluoro-3,6-dimethyl-1,1-dioxido-3,6-dihydro-2H-1,4-thiazin-3-yl)-4-fluorophenyl)-5-(2-butyn-1-yloxy)-2-pyrazinecarboxamide]
0.0018	0.0688	> 400	COc1ccc(C(=O)Nc2ccc(F)c([C@]3(C)CS(=O)(=O)[C@@](C)(F)C(N)=N3)c2)nc1 [Example 318, N-(3-((3R,6R)-5-amino-6-fluoro-3,6-dimethyl-1,1-dioxido-3,6-dihydro-2H-1,4-thiazin-3-yl)-4-fluorophenyl)-5-methoxy-2-pyridinecarboxamide]
0.00162	0.07	> 400	C[C@]1(F)C(N)=N[C@](C)(c2cc(NC(=O)c3ccc(C(F)F)cn3)ccc2F)CS1(=O)=O [Example 319, N-(3-((3R,6R)-5-amino-6-fluoro-3,6-dimethyl-1,1-dioxido-3,6-dihydro-2H-1,4-thiazin-3-yl)-4-fluorophenyl)-5-(difluoromethyl)-2-pyridinecarboxamide]
0.0008	0.0789	> 400	C[C@]1(F)C(N)=N[C@](C)(c2cc(NC(=O)c3ncc(Cl)cc3F)ccc2F)CS1(=O)=O [Example 320, N-(3-((3R,6R)-5-amino-6-fluoro-3,6-dimethyl-1,1-dioxido-3,6-dihydro-2H-1,4-thiazin-3-yl)-4-fluorophenyl)-5-chloro-3-fluoro-2-pyridinecarboxamide]
0.00072	0.0449	387	Cc1cc(OC(F)F)cnc1C(=O)Nc1ccc(F)c([C@]2(C)CS(=O)(=O)[C@@](C)(F)C(N)=N2)c1 [Example 321, N-(3-((3R,6R)-5-amino-6-fluoro-3,6-dimethyl-1,1-dioxido-3,6-dihydro-2H-1,4-thiazin-3-yl)-4-fluorophenyl)-5-(difluoromethoxy)-3-methyl-2-pyridinecarboxamide]
0.00195	0.134	1220	C[C@]1(F)C(N)=N[C@](C)(c2cc(NC(=O)c3ccc(F)cn3)ccc2F)CS1(=O)=O [Example 322, N-(3-((3R,6R)-5-amino-6-fluoro-3,6-dimethyl-1,1-dioxido-3,6-dihydro-2H-1,4-thiazin-3-yl)-4-fluorophenyl)-5-fluoro-2-pyridinecarboxamide]
0.00386	0.288	931	C[C@]1(F)C(N)=N[C@](C)(c2cc(NC(=O)c3cnc(C(F)(F)F)cn3)ccc2F)CS1(=O)=O [Example 323, N-(3-((3R,6R)-5-amino-6-fluoro-3,6-dimethyl-1,1-dioxido-3,6-dihydro-2H-1,4-thiazin-3-yl)-4-fluorophenyl)-5-(trifluoromethyl)-2-pyrazinecarboxamide]
0.00102	0.0651	1370	Cc1cc(C#N)cnc1C(=O)Nc1ccc(F)c([C@]2(C)CS(=O)(=O)[C@@](C)(F)C(N)=N2)c1 [Example 324, N-(3-((3R,6R)-5-amino-6-fluoro-3,6-dimethyl-1,1-dioxido-3,6-dihydro-2H-1,4-thiazin-3-yl)-4-fluorophenyl)-5-cyano-3-methyl-2-pyridinecarboxamide]
0.00042	0.0445	1260	C[C@]1(F)C(N)=N[C@](C)(c2cc(NC(=O)c3cnc(OCC(F)(F)F)cn3)ccc2F)CS1(=O)=O [Example 325, N-(3-((3R,6R)-5-amino-6-fluoro-3,6-dimethyl-1,1-dioxido-3,6-dihydro-2H-1,4-thiazin-3-yl)-4-fluorophenyl)-5-(2,2,2-trifluoroethoxy)-2-pyrazinecarboxamide]
0.00277	0.0597	979	C[C@]1(F)C(N)=N[C@](C)(c2cc(NC(=O)c3ncc(C(F)F)cc3Cl)ccc2F)CS1(=O)=O [Example 326, N-(3-((3R,6R)-5-amino-6-fluoro-3,6-dimethyl-1,1-dioxido-3,6-dihydro-2H-1,4-thiazin-3-yl)-4-fluorophenyl)-3-chloro-5-(difluoromethyl)-2-pyridinecarboxamide]
0.00074	0.0204	> 400	C[C@]1(F)C(N)=N[C@](C)(c2cc(NC(=O)c3ncc(C#N)cc3Cl)ccc2F)CS1(=O)=O [Example 327, N-(3-((3R,6R)-5-amino-6-fluoro-3,6-dimethyl-1,1-dioxido-3,6-dihydro-2H-1,4-thiazin-3-yl)-4-fluorophenyl)-3-chloro-5-cyano-2-pyridinecarboxamide]
0.00051	0.0928	598	COCc1cc(Cl)cnc1C(=O)Nc1ccc(F)c([C@]2(C)CS(=O)(=O)[C@@](C)(F)C(N)=N2)c1 [Example 328, N-(3-((3R,6R)-5-amino-6-fluoro-3,6-dimethyl-1,1-dioxido-3,6-dihydro-2H-1,4-thiazin-3-yl)-4-fluorophenyl)-5-chloro-3-(methoxymethyl)-2-pyridinecarboxamide]

Compound	IC50 [1] [µM]	IC50 [2] [µM]	IC50 (Cathepsin D (Cat D)) [µM]
CC1(C)C(N)=N[C@](C)(c2cc(NC(=O)c3cnc(C(F)F)cn3)ccc2F)CS1(=O)=O [Example 313, N-(3-((3R)-5-amino-3,6,6-trimethyl-1,1-dioxido-3,6-dihydro-2H-1,4-thiazin-3-yl)-4-fluorophenyl)-5-(difluoromethyl)-2-pyrazinecarboxamide]	0.00292	0.0063	887
